Inhibition data for six compounds are collected here from ChEMBL document CHEMBL3044599, “Structure-activity relationship of citrus polymethoxylated flavones and their inhibitory effects on Aspergillus niger” (J Agric Food Chem, 2012).

Active and inactive are the calls of the source. The rule behind the calls is not given here.

The assay concerns Aspergillus niger. Kind of assay: Antifungal activity against Aspergillus niger CICC 2273 assessed as inhibition of mycelial growth by microbroth dilution method. Format: functional, organism-based.
`COc1ccc(-c2cc(=O)c3c(OC)c(OC)c(OC)cc3o2)cc1`: the inhibition result is “Active”.

Regarding `COc1ccc(-c2oc3c(OC)c(OC)c(OC)c(OC)c3c(=O)c2O)cc1OC`, the inhibition entry was “inactive”.

On to `COc1ccc(-c2oc3cc(OC)c(OC)c(OC)c3c(=O)c2OC)cc1OC`, for which the inhibition result was “Active”.

Turning to `COc1ccc(-c2cc(=O)c3c(OC)c(OC)c(OC)c(OC)c3o2)cc1OC`, the inhibition result is “Active”.

With `CC(=O)C[C@H]1O[C@@H](Oc2ccc3c(=O)cc(-c4ccccc4)oc3c2)[C@H](O)[C@@H](O)[C@@H]1O`, the inhibition entry was “inactive”.

`COc1ccc(-c2cc(=O)c3c(O)c(OC)c(OC)c(OC)c3o2)cc1OC`: the inhibition result is “Active”.
